Laboratory results: patent publication US20180296586A1, “USE OF NADPH FOR PREPARATION OF A DRUG FOR ANTIPLATELET AGGREGATION” (Chongqing Institute of Bench-to-Bed Bioengineering …, priority 2015, published 2018)

Key:
[1] = system: ADP-induced platelet aggregation; test: ADP-induced platelet aggregation of rats, in-vitro administration of NADPH; assay type: cell-based; conditions: rat PRP, NADPH 30, 60 and 90 μM in vitro, ADP 20 μM, 4 min; P<0.05, P<0.01 vs ADP group
Protocol: (§1) 20 rats are subjected to blood drawing from abdominal aorta, 3.8% sodium citrate is used for carrying out anticoagulation treatment according to a drawn blood volume/anticoagulant ratio of 9:1, centrifugation is carried out for 5 min at a rate of 1000 r/min, upper-layer platelet-rich plasma (PRP) is sucked out, remaining blood is subjected to centrifugation for 10 min at a rate of 3000 r/min to prepare platelet-poor plasma (PPP) until the number of platelets is 2*10<8>/mL, and platelet aggregation is detected by adopting a platelet aggregometer Chronolog-590.
(§2) The platelet aggregometer is turned on and preheated for 30 min, and light transmittance is adjusted to 100% with PPP as blank control. 0.25mL of NADPH samples of different concentrations (30 μM, 60 μM and 90 μM) are added into PRP, preheating is conducted for 5 min at the temperature of 37 DEG C., the preheated material is put into the aggregometer, then, a certain amount of ADP (20 μM) is added to induce platelet aggregation, graphic changes in 4 min are recorded, and conditions of ADP-induced platelet aggregation caused by NADPH are observed.

[2] = system: thrombin-induced platelet aggregation; test: Thrombin-induced platelet aggregation of rats, in-vitro administration of NADPH; assay type: cell-based; conditions: rat PRP, NADPH 30, 60 and 90 μM in vitro, thrombin 2U, 4 min; P<0.05, P<0.01 vs thrombin group
Protocol: as §1
as §2, with “100 %” for “100%”, “0.25 mL” for “0.25mL”, “thrombin (2U)” for “ADP (20 μM)”, “thrombin-induced” for “ADP-induced”

[3] = system: ADP-induced platelet aggregation; test: ADP-induced platelet aggregation after preventive administration of NADPH in rats; assay type: in vivo, rat; conditions: NADPH 7.5 mg/kg caudal vein 30 min before blood drawing, ADP 20 μM, P<0.01
Protocol: as §1, with “Normal SD male rats are randomly divided into 2 groups, i.e., a physiological saline group (saline group) and an NADPH (7.5 mg/kg) dosage group in a manner that each group comprises 10 rats. NADPH is injected into the rats through caudal veins 30 min before blood drawing. The” for “20”
The platelet aggregometer is turned on and preheated for 30 min, and light transmittance is adjusted to 100% with PPP as blank control. APRP sample of the physiological saline group (saline group) and a PRP sample of the NADPH (7.5 mg/kg) dosage group are preheated for 5 min at the temperature of 37 DEG C., the preheated PRP samples are put into the aggregometer, then, a certain amount of ADP (20 μM) is added to induce platelet aggregation, graphic changes in 4 min are recorded, and conditions of ADP-induced platelet aggregation caused by NADPH are observed.

[4] = system: thrombin-induced platelet aggregation; test: Thrombin-induced platelet aggregation after preventive administration of NADPH in rats; assay type: in vivo, rat; conditions: NADPH 7.5 mg/kg caudal vein 30 min before blood drawing, thrombin 2U, P<0.01
Protocol: as §1, with “Normal SD male rats are randomly divided into 2 groups, i.e., a physiological saline group (saline group) and an NADPH (7.5 mg/kg) dosage group in a manner that each group comprises 10 rats. NADPH is injected into the rats through caudal veins 30 min before blood drawing. The” for “20”
The platelet aggregometer is turned on and preheated for 30 min, and light transmittance is adjusted to 100% with PPP as blank control. […]

Compound: NC(=O)C1=CN([C@@H]2O[C@H](COP(=O)(O)OP(=O)(O)OC[C@H]3O[C@@H](n4cnc5c(N)ncnc54)[C@H](OP(=O)(O)O)[C@@H]3O)[C@@H](O)[C@H]2O)C=CC1 [NADPH, Reduced triphosphopyridine nucleotide]
- inhibition of ADP-induced platelet aggregation [1]: inhibits ADP-induced platelet aggregation of rats in a dose-dependent mode
- inhibition of thrombin-induced platelet aggregation [2]: inhibits thrombin-induced platelet aggregation of the rats in a dose-dependent mode
- inhibition of ADP-induced platelet aggregation [3]: remarkably inhibit ADP-induced platelet aggregation
- inhibition of thrombin-induced platelet aggregation [4]: remarkably inhibit thrombin-induced platelet aggregation
